Drawing on the METLIN SMRT retention time set (Domingo-Almenara et al. 2019), this text covers RP-LC retention time for 81 molecules.

The data set is described as follows: gradient 5% acetonitrile 3 min, to 50% in 2 min, to 85% in 15 min, held 3 min, 100 µL/min. Particulars: column: Zorbax Extend-C18 2.1 x 50 mm; eluents: water / acetonitrile, 0.1% formic acid. Put shortly:
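Values are retention times taken from adduct peaks that software picked and an analyst inspected. The pure standards were run as mixtures of ~100 molecules on HPLC linked to a quadrupole time-of-flight mass spectrometer, in positive and negative ionization mode. A Zorbax Extend-C18 column (2.1 × 50 mm, 1.8 μm) was used at 100 μL/min with water and acetonitrile, each including 0.1% formic acid.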
In the case of `O=C(Cc1ccccc1)N1CCCCC1c1nc(-c2cnccn2)no1` (stereo unspecified), the RP-LC retention time was found to be 812 s.

`Cc1cccc(C(=O)N2CCc3nc[nH]c3C2)c1` had an RP-LC retention time of 569 s.

In turn, `CCN1c2ccc(C)cc2C(=O)NC12CCN(C(=O)c1ccccc1OC)CC2` yielded an RP-LC retention time of 786 s.

The molecule `Cc1nc(-c2cccnc2)nc2c1CCC(=O)N2Cc1cccs1` gave an RP-LC retention time of 740 s.

Take `O=C1NC(C(=O)NCC2CCCCC2)Cn2cccc21` (stereo unspecified): the RP-LC retention time came to 681 s.

Molecule `COCc1cc(=O)n(Cc2cc(C)ccc2C)c(N2CCCC2)n1` came in with an RP-LC retention time of 912 s.

For `CCCNC(=O)C1CCN(c2ccc(SCC(=O)Nc3ccccc3C(=O)OCC)nn2)CC1`, the RP-LC retention time was found to be 715 s.

Take `CCN1C(=O)COc2cc(-c3noc(C(=O)NC4CC4)n3)ccc21`: the RP-LC retention time turned out to be 773 s.

`O=C(CCSCCc1ccccn1)Nc1c(F)cc(F)cc1Br` registered an RP-LC retention time of 627 s.

The molecule `CC(N)c1cccc(Cl)c1Cl` (stereo unspecified) came in with an RP-LC retention time of 636 s.

Take `CCNC(=O)c1cc(C(C)(C)C)[nH]n1`: the RP-LC retention time is 647 s.

In the case of `O=c1ccc(-c2ccc3c(c2)OCO3)nn1CCc1nc(-c2ccc3c(c2)OCO3)no1`, the RP-LC retention time amounted to 893 s.

Turning to `O=C(CN1C(=O)C(C(=O)N2CCCCC2)Sc2ccccc21)N1CCN(c2ccccc2F)CC1` (stereo unspecified), the RP-LC retention time came out at 960 s.

Consider `CCc1ccc(OCc2nc(C)c(C(=O)Nc3nc(-c4ccc(OC)cc4)cs3)s2)cc1`, for which the RP-LC retention time was determined as 1290 s.

`CN(CCc1noc(-c2ccc(C(=O)N3CCCC3)cc2)n1)C(=O)COc1ccc(Cl)cc1`: the RP-LC retention time came to 808 s.

In turn, `Cc1ccnc(Nc2nc(C)c(C(=O)N3CCC(C)CC3)s2)c1` had an RP-LC retention time of 779 s.

Consider `CCN1CCN(C(=O)Nc2ccc(C(=O)OC)cc2)c2cccnc21`, for which the RP-LC retention time stood at 621 s.

In turn, `O=C(Cc1cccc(Cl)c1)NC1CCN(c2cc(-c3ccc(F)cc3)[nH]n2)C1` (stereo unspecified) displayed an RP-LC retention time of 741 s.

In turn, `CCOc1ccccc1NC(=O)CN1C(=O)CCc2cc(Br)ccc21` showed an RP-LC retention time of 1000 s.

`O=C(c1nnc(-c2ccc(S(=O)(=O)N3CCCCC3)cc2)o1)N1CCN(C2CCCCC2)CC1` displayed an RP-LC retention time of 700 s.

`COC(=O)c1c(-c2ccc(OC)cc2)csc1N` returned an RP-LC retention time of 822 s.

As to `Cc1cc(C(=O)N2CCCCCC2c2nnc(C)o2)c(C)o1` (stereo unspecified), the RP-LC retention time is 755 s.

With `Cc1ccc(-c2noc(-c3ccccc3S(=O)(=O)Nc3ccc(S(N)(=O)=O)cc3)n2)cc1`, the RP-LC retention time stood at 933 s.

The molecule `CC(C)n1cnnc1CC1CN(C(=O)Nc2cc(F)cc(F)c2)C1` showed an RP-LC retention time of 667 s.

As for `COc1ccccc1CCC(=O)NCC(=O)Nc1nc2ccccc2[nH]1`, the RP-LC retention time is 652 s.

As for `CCN(CC)CCCNc1ccc(-c2nc(-c3cccc(F)c3)no2)cn1`, the RP-LC retention time came to 707 s.

On to `CC1CC(C)CN(CCCNC(=O)Cn2c(=O)c3cccn3c3ccccc32)C1` (stereo unspecified), for which the RP-LC retention time came out at 620 s.

In the case of `O=C(NC1CCCCC1)N1CCCC(Cn2cnc3cccnc32)C1` (stereo unspecified), the RP-LC retention time was found to be 663 s.

`CCOC(=O)C1CCN(c2cc3c(cc2NC(=O)NC(C)C)n(C)c(=O)n3C)CC1` showed an RP-LC retention time of 713 s.

Turning to `CSc1ccc(-c2nc3cnccn3c2Nc2cccc(Cl)c2C)cc1`, the RP-LC retention time stood at 1060 s.

`Cc1nn(C(C)C)c(C)c1S(=O)(=O)N1CCN(C(=O)C(C)Oc2ccccc2)CC1` (stereo unspecified) yielded an RP-LC retention time of 665 s.

Molecule `Cc1oc(C2CCN(S(=O)(=O)CCc3ccccc3)CC2)nc1C(=O)N(C)C` came in with an RP-LC retention time of 816 s.

In turn, `CSc1ccc(NC(=O)Nc2c(-c3ccncc3)nc3ccccn23)cc1` came in with an RP-LC retention time of 618 s.

`CCC(C(=O)Nc1ccc(-c2nc(Cn3nc(C)cc3C)c(C)o2)cc1)c1ccccc1` (stereo unspecified) showed an RP-LC retention time of 1050 s.

`CC(=O)Nc1c(C)nn(-c2ccccc2)c1N1CCC(C(=O)NCC2COCCO2)CC1` (stereo unspecified) had an RP-LC retention time of 605 s.

Take `CCc1nc(-c2cccc(-c3noc(CN4C(=O)COc5ccc(Cl)cc54)n3)c2)cs1`: the RP-LC retention time was determined as 1240 s.

Molecule `COc1cccc(C(=O)N2CCc3cc(-c4csc(C)n4)ccc32)c1` yielded an RP-LC retention time of 988 s.

`COc1ccccc1N1CC(c2nc3ccccc3n2CC(=O)N(C(C)C)C(C)C)CC1=O` (stereo unspecified) came in with an RP-LC retention time of 752 s.

The molecule `Cc1nc(-c2nc(-c3cccs3)cs2)cn1CC(=O)NCc1ccccc1` registered an RP-LC retention time of 760 s.

The molecule `CC(C)C(=O)Nc1ccc(-n2cnc(C(=O)N3CCN(Cc4ccccc4)CC3)c2)nc1` registered an RP-LC retention time of 608 s.

With `COc1ccc(Cl)cc1NC(=O)c1csc(-c2cn(C)c3ncccc23)n1`, the RP-LC retention time came to 1230 s.

`CCCN1C(=O)COc2ccc(-c3noc(-c4ccc(C(F)(F)F)cc4)n3)cc21` registered an RP-LC retention time of 1050 s.

`CCNc1nc(C)cc(N2CCN(C(=O)Nc3ccc(Cl)cc3)CC2)n1` gave an RP-LC retention time of 682 s.

In the case of `CC(C)(C)c1ccc(C(=O)NC2CCN(c3cc(-c4ccc(F)cc4)[nH]n3)C2)cc1` (stereo unspecified), the RP-LC retention time was 899 s.

`CCc1ccc(-c2cn3cc(C(=O)NC4CC4)ccc3n2)cc1` yielded an RP-LC retention time of 655 s.

As for `COC(=O)[C@@H](N)CSC/C=C(\C)CC/C=C(\C)CCC=C(C)C`, the RP-LC retention time stood at 961 s.

In turn, `CCN1C(=O)c2cc(C(=O)NCc3ccc(C)cc3)nn2CC1(C)C(=O)NC1CCCC1` (stereo unspecified) showed an RP-LC retention time of 766 s.

`O=C(NCc1nnc(SCc2ccccn2)o1)c1ccccc1` registered an RP-LC retention time of 586 s.

In the case of `CCOCCOC(=O)C1=C(C)NC2=C(C(=O)C(C(=O)OC)C(C)C2)C1c1cccc(F)c1` (stereo unspecified), the RP-LC retention time came to 894 s.

Take `O=C(Nc1ccc(F)cc1)C1CCCN(c2nnc3ccc(Cl)cn23)C1` (stereo unspecified): the RP-LC retention time worked out at 689 s.

Molecule `COC(=O)c1cc(S(=O)(=O)N2CCN(c3cccc(C)c3)C(C)C2)c(C)n1C` (stereo unspecified) registered an RP-LC retention time of 1080 s.

The molecule `Cc1sc(-c2nc(C(C)C)cs2)cc1S(=O)(=O)NCc1ccc2c(c1)OCO2` gave an RP-LC retention time of 1130 s.

Take `CCCNC(=O)CCc1nc2ccccc2n(CC(=O)Nc2c(C)cccc2CC)c1=O`: the RP-LC retention time came to 810 s.

With `Cc1noc(CNC(=O)c2n[nH]c3ccccc23)n1`, the RP-LC retention time turned out to be 626 s.

For the molecule `COc1ccc(-c2nnc(NC(=O)c3ccc(S(=O)(=O)N(C)C)cc3)s2)c(OC)c1`, the RP-LC retention time stood at 808 s.

As to `O=C(COc1ccccc1)N1CC(F)(F)C[C@H]1c1nnc(C2CC2)o1`, the RP-LC retention time was determined as 768 s.

In turn, `CC(C)c1ccccc1NC(=O)CN1C(=O)NC2(CCCCC2)C1=O` registered an RP-LC retention time of 807 s.

For `O=C(NCC1CCCO1)N1CCCn2nc(-c3ccncc3)cc2C1` (stereo unspecified), the RP-LC retention time stood at 551 s.

Consider `CCn1cc(-c2nc(C)c(C(=O)Nc3cc(F)cc(F)c3)s2)c2cccnc21`, for which the RP-LC retention time was 1120 s.

Molecule `COc1ccc2[nH]cc(CCNC(=O)Cn3nc4c(cc3=O)CCCCC4)c2c1` had an RP-LC retention time of 756 s.

As for `CSc1ccc(NC(=O)N2CCc3c(c(-c4nc(C5CC5)no4)nn3C)C2)cc1`, the RP-LC retention time turned out to be 874 s.

Molecule `O=C(O)c1ccc(NCc2nc3ccccc3[nH]2)cc1` registered an RP-LC retention time of 896 s.

For the molecule `O=C(CCc1c(-c2ccc(Cl)cc2)nc2ccccn12)NCc1cccnc1`, the RP-LC retention time turned out to be 570 s.

As to `O=C(CC1CCCCC1)N1CCN(c2ccc(=O)n(-c3ccccc3)n2)CC1`, the RP-LC retention time was 857 s.

As for `O=C1CC(C(=O)N2CCCCCC2)CN1CCc1ccccc1` (stereo unspecified), the RP-LC retention time stood at 760 s.

`O=C(Cc1csc2nc(-c3ccccc3)cn12)NCc1cccc(Br)c1` came in with an RP-LC retention time of 872 s.

`CCC(c1cccs1)N1C(=O)[C@H]2CN(S(=O)(=O)c3cccc(OC)c3)C[C@H]2C1=O` (stereo partly specified) displayed an RP-LC retention time of 1010 s.

The molecule `Cc1cccc(-c2nocc2CCC(=O)O)c1` displayed an RP-LC retention time of 758 s.

In turn, `O=c1cc(N2CCOCC2)oc2c1ccc1ccccc12` gave an RP-LC retention time of 882 s.

With `Cn1c(=O)c2nc(SCCC(=O)Nc3ccc(F)cc3)n(C)c2n(C)c1=O`, the RP-LC retention time was 690 s.

Turning to `O=C(Nc1nc2ccccc2[nH]1)C1CCN(c2ccc(-c3cccs3)nn2)CC1`, the RP-LC retention time turned out to be 591 s.

Consider `Cn1cnc(S(=O)(=O)N2CCCN(S(=O)(=O)Cc3ccccc3)CCNC(=O)CC2c2ccccc2)c1` (stereo unspecified), for which the RP-LC retention time was found to be 711 s.

Take `Cc1c(C)n(-c2ccccc2)c2ncn(CC(=O)NC(C)Cc3ccco3)c(=O)c12` (stereo unspecified): the RP-LC retention time was 848 s.

In turn, `Cc1ccc(Nc2c(-c3ccc(O)cc3)nc3ccccn23)cc1` registered an RP-LC retention time of 656 s.

Molecule `COC(=O)c1ccc(C(=O)OC)c(NC(=O)CSc2nc(C)cc(C)n2)c1` registered an RP-LC retention time of 852 s.

As to `COCCc1noc(C2CN(S(=O)(=O)Cc3ccccc3F)C2)n1`, the RP-LC retention time turned out to be 858 s.

In turn, `COc1ccc(OC)c(CNC(=O)CCC(=O)N2CCCn3nc(C)cc32)c1` showed an RP-LC retention time of 654 s.

The molecule `O=C1C(N2CCN(S(=O)(=O)c3ccccc3Cl)CC2)CCN1CCc1ccccc1` (stereo unspecified) registered an RP-LC retention time of 672 s.

`Cc1ccc(S(=O)(=O)N2CCN(c3cc(C)nc(NC4CCCCC4)n3)CC2)cc1` displayed an RP-LC retention time of 811 s.

Regarding `Cc1nn2c(CNS(=O)(=O)c3ccccc3F)c(-c3ccccc3)nc2s1`, the RP-LC retention time was found to be 834 s.

The molecule `Cc1noc(C2(NC(=O)c3ccc4ccccc4n3)CCCCC2)n1` showed an RP-LC retention time of 1060 s.
